Measured values published in ChEMBL document CHEMBL3390840, “Expanding the horizon of chemotherapeutic targets: From MDM2 to MDMX (MDM4)” (Medchemcomm, 2011).

How the values were obtained:
[1] = molecular target: T1, Protein Mdm4 (Homo sapiens, UniProt O15151); assay: Inhibition of human full length GST-tagged MDMX expressed in Escherichia coli TG1 after 15 mins by ELISA
T1 sequence (O15151 whole entry): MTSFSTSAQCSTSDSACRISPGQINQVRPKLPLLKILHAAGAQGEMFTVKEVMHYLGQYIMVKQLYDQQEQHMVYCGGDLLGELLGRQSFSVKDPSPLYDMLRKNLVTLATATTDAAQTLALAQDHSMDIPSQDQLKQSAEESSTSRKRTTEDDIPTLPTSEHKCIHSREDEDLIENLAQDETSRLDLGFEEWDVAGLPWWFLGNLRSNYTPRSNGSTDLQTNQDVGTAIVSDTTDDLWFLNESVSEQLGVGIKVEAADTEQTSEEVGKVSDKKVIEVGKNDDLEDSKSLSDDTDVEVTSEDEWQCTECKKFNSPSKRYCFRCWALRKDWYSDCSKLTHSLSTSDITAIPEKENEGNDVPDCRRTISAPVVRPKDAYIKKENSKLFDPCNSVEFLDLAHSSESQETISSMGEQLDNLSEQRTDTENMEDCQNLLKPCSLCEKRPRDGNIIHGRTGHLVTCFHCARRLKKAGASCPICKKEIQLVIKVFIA

[2] = molecular target: E3 ubiquitin-protein ligase Mdm2 (Homo sapiens, UniProt Q00987); assay: Inhibition of human full length GST-tagged MDM2 expressed in Escherichia coli TG1 after 15 mins by ELISA
[3] = molecular target: MDMX (Homo sapiens, UniProt O15151); assay: Inhibition of human recombinant MDMX (1 to 185) after 30 mins by fluorescence polarization assay

E3 ubiquitin-protein ligase Mdm2, sequence (Q00987 whole entry): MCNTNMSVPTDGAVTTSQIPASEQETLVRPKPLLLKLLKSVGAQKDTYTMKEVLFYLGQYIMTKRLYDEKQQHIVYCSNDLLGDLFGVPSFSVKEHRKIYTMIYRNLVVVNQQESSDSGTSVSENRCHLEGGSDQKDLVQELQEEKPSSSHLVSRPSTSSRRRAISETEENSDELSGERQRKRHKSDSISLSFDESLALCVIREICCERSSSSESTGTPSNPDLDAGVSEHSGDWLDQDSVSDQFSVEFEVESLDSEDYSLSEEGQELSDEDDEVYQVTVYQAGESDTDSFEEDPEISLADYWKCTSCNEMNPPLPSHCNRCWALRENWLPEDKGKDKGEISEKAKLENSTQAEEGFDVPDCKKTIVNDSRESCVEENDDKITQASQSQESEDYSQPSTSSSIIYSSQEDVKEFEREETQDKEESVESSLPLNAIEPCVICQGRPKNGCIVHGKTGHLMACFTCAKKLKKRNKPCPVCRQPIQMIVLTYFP

Molecule	IC50 [1] [nM]	IC50 [2] [nM]	EC50 [3] [nM]
H-MPRFMDYWEGLN-OH	1650	150	–
CCOc1cc(/C=C2\C(=O)N(c3ccccc3)N=C2C)cc(Cl)c1OCC(=O)OC	–	–	840
